Assay results reported in ChEMBL document CHEMBL2029261 (Bioorg Med Chem Lett, 2012).
Calls of active or inactive are those of the source. The calls are words filed in the database; no cut-off is given here.

Columns and labels:
[1] = Binding affinity to amyloid beta (1 to 40) aggregates assessed as change in fluorescence intensity at 10 uM relative to control
[2] = Apparent binding affinity to amyloid beta (1 to 40) aggregates; conditions: read-out: Kd(app)
[3] = species: Mus musculus; test: Binding affinity to amyloid beta plaque in mouse brain tissue by thioflavin staining-based fluorescence analysis
[4] = species: Mus musculus; test: Binding affinity to amyloid beta plaque in APP/PS1 transgenic mouse brain tissue by thioflavin staining-based fluorescence analysis
[5] = biological target: Amyloid-beta precursor protein (Homo sapiens) (UniProt P05067); test: Binding affinity to unlabeled amyloid beta (1 to 42) expressed in human SH-SY5Y cells at 10 uM after 10 mins thioflavin staining-based by fluorescence microscopic analysis
Amyloid-beta precursor protein (Homo sapiens), sequence (P05067 whole entry): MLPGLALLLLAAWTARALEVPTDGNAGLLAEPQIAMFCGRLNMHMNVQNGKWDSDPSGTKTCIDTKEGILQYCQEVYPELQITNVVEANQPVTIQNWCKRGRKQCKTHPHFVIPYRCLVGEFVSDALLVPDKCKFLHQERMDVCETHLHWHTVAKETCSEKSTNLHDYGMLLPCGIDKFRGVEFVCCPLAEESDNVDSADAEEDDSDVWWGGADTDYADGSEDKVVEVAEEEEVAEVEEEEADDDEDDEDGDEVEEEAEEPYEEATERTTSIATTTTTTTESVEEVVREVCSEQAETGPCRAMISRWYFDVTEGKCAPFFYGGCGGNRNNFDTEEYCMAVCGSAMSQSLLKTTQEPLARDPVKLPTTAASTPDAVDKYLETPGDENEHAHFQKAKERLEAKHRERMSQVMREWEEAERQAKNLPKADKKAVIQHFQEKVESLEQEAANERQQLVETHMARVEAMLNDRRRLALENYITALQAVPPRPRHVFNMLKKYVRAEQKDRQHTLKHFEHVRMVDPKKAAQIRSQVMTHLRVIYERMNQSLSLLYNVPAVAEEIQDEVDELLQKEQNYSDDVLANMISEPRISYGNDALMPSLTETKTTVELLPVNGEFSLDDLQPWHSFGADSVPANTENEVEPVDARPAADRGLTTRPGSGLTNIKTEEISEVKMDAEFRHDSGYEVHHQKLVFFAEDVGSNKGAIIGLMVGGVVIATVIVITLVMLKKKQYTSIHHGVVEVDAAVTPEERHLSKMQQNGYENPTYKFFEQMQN

Row | SMILES | fold change (FC) [1] | Kd [2] [µM] | further results
1 | O=c1c(Cl)c(Cl)cnn1/C=C/c1ccccc1 | 4.72 | – | –
2 | COc1cccc(/C=C/n2ncc(Cl)c(Cl)c2=O)c1OC | 15.3 | 8.52 | –
3 | COc1cccc(OC)c1/C=C/n1ncc(Cl)c(Cl)c1=O | 4.53 | – | –
4 | O=c1c(Cl)c(Cl)cnn1/C=C/c1ccc(I)cc1 | 5.26 | – | –
5 | Nc1ccc(/C=C/n2ncc(Cl)c(Cl)c2=O)cc1 | 12.2 | 2.95 | –
6 | COc1cc(/C=C/n2ncc(Cl)c(Cl)c2=O)cc(OC)c1 | 5.37 | – | –
7 | O=c1c(Cl)c(Cl)cnn1/C=C/c1cccc([N+](=O)[O-])c1 | 2.12 | – | –
8 | Cc1ccc2c(c1)sc(-c1ccc(N(C)C)cc1)[n+]2C | – | – | Activity [3]: inactive
9 | COc1ccc(/C=C/n2ncc(Cl)c(Cl)c2=O)cc1OC | 3.52 | – | –
10 | COc1ccc(OC)c(/C=C/n2ncc(Cl)c(Cl)c2=O)c1 | 3.42 | – | –
11 | O=c1c(Cl)c(Cl)cnn1/C=C/c1ccc(-c2ccccc2)cc1 | 1.92 | – | –
12 | COC(=O)c1ccc(/C=C/n2ncc(Cl)c(Cl)c2=O)cc1 | 2.07 | – | –
13 | COc1ccc(/C=C/n2ncc(Cl)c(Cl)c2=O)cc1 | 19.8 | 2.57 | –
14 | O=c1c(Cl)c(Cl)cnn1/C=C/c1ccc(F)cc1 | 5.93 | – | –
15 | O=c1c(Cl)c(Cl)cnn1/C=C/c1ccc(Br)cc1 | 2.12 | – | –
16 | O=c1c(Cl)c(Cl)cnn1/C=C/c1ccccc1[N+](=O)[O-] | 4.12 | – | –
17 | CN(C)c1ccc(/C=C/n2ncc(Cl)c(Cl)c2=O)cc1 | 40.8 | 1.84 | Activity [4]: Active; Activity [3]: inactive; Activity [5]: Active
18 | COc1cccc(/C=C/n2ncc(Cl)c(Cl)c2=O)c1 | 11.1 | 3.48 | –
19 | O=c1c(Cl)c(Cl)cnn1/C=C/c1ccc(Cl)cc1 | 3.03 | – | –
20 | O=c1c(Cl)c(Cl)cnn1/C=C/c1ccc([N+](=O)[O-])cc1 | 2.24 | – | –
21 | COc1ccccc1/C=C/n1ncc(Cl)c(Cl)c1=O | 8.24 | – | –
22 | COc1ccc(/C=C/n2ncc(Cl)c(Cl)c2=O)c(OC)c1 | 11.5 | 5.03 | –
23 | O=c1c(Cl)c(Cl)cnn1/C=C/c1ccc(/C=C\c2ccccc2)cc1 | 2.04 | – | –
24 | COc1cc(OC)c(/C=C/n2ncc(Cl)c(Cl)c2=O)c(OC)c1 | 11.7 | 17.6 | –
25 | N#Cc1ccc(/C=C/n2ncc(Cl)c(Cl)c2=O)cc1 | 2.94 | – | –
26 | Cc1ccc(/C=C/n2ncc(Cl)c(Cl)c2=O)cc1 | 2.81 | – | –
27 | COc1cc(/C=C/n2ncc(Cl)c(Cl)c2=O)cc(OC)c1OC | – | 4.14 | FC [1]: 26.1
28 | COc1cc(OC)c(OC)cc1/C=C/n1ncc(Cl)c(Cl)c1=O | 3.95 | – | –
29 | COc1ccc(/C=C/n2ncc(Cl)c(Cl)c2=O)c(OC)c1OC | 26.8 | 4.24 | –
